Experimental data from the supplement of paper PMC10307832.

What was measured:
Assay in all cases: relative viability (nuclei count vs DMSO), 5 days (fraction); higher = more cells survive
[1] = compound: CC(C)C[C@H](NC(=O)[C@H](CCc1ccccc1)NC(=O)CN1CCOCC1)C(=O)N[C@@H](Cc1ccccc1)C(=O)N[C@@H](CC(C)C)C(=O)[C@@]1(C)CO1 [Carfilzomib] + CC(=O)c1c(C)c2cnc(Nc3ccc(N4CCNCC4)cn3)nc2n(C2CCCC2)c1=O [Palbociclib] (partner 0.5 µM)
Method in brief: (§1)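 One day after seeding in 1536-well plates, lung cancer cell lines were dosed by pin tool. Dosing was either single-drug or a fixed anchor-drug dose plus five library-drug doses (not always all listed) in √10 steps. After 5 days, nuclei were stained in one fix-and-stain step and counted on 4× images, and relative viability is the nuclei count of treated wells over that of vehicle wells, given as the median of duplicate plates.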

Crizotinib + Trametinib = compound: C[C@@H](Oc1cc(-c2cnn(C3CCNCC3)c2)cnc1N)c1c(Cl)ccc(F)c1Cl [Crizotinib] + CC(=O)Nc1cccc(-n2c(=O)n(C3CC3)c(=O)c3c(Nc4ccc(I)cc4F)n(C)c(=O)c(C)c32)c1 [Trametinib] (partner 0.02 µM)
Method in brief: as §1

Crizotinib + Lapatinib = compound: C[C@@H](Oc1cc(-c2cnn(C3CCNCC3)c2)cnc1N)c1c(Cl)ccc(F)c1Cl [Crizotinib] + CS(=O)(=O)CCNCc1ccc(-c2ccc3ncnc(Nc4ccc(OCc5cccc(F)c5)c(Cl)c4)c3c2)o1 [Lapatinib] (partner 2 µM)
Method in brief: as §1

Olaparib + Lapatinib = compound: O=C(c1cc(Cc2n[nH]c(=O)c3ccccc23)ccc1F)N1CCN(C(=O)C2CC2)CC1 [Olaparib] + CS(=O)(=O)CCNCc1ccc(-c2ccc3ncnc(Nc4ccc(OCc5cccc(F)c5)c(Cl)c4)c3c2)o1 [Lapatinib] (partner 2 µM)
Method in brief: as §1

Olaparib + Vorinostat = compound: O=C(c1cc(Cc2n[nH]c(=O)c3ccccc23)ccc1F)N1CCN(C(=O)C2CC2)CC1 [Olaparib] + O=C(CCCCCCC(=O)Nc1ccccc1)NO [Vorinostat] (partner 1 µM)
Method in brief: as §1

NCI-H1793
relative viability ([1]; first compound 0.001 µM): 0.338
relative viability ([1]; first compound 0.003162 µM): 0.402
relative viability ([1]; first compound 0.01 µM): 0.331
relative viability ([1]; first compound 0.03162 µM): 0.275
relative viability ([1]; first compound 0.1 µM): 0.197
relative viability (Crizotinib + Trametinib; first compound 0.03162 µM): 0.467
relative viability (Crizotinib + Trametinib; first compound 0.1 µM): 0.399
relative viability (Crizotinib + Trametinib; first compound 1 µM): 0.461
relative viability (Crizotinib + Lapatinib; first compound 0.01 µM): 0.68
relative viability (Crizotinib + Lapatinib; first compound 0.03162 µM): 0.737
relative viability (Crizotinib + Lapatinib; first compound 0.1 µM): 0.749
relative viability (Crizotinib + Lapatinib; first compound 1 µM): 0.802
relative viability (Olaparib + Lapatinib; first compound 0.08 µM): 0.641
relative viability (Olaparib + Lapatinib; first compound 0.253 µM): 0.5
relative viability (Olaparib + Lapatinib; first compound 2.53 µM): 0.578
relative viability (Olaparib + Lapatinib; first compound 8 µM): 0.649
relative viability (Olaparib + Vorinostat; first compound 0.08 µM): 0.841
relative viability (Olaparib + Vorinostat; first compound 0.253 µM): 0.707
relative viability (Olaparib + Vorinostat; first compound 2.53 µM): 0.683
relative viability (Olaparib + Vorinostat; first compound 8 µM): 0.679
